{"source": "patent US12036226B2", "about": "“Methods of treating subjects having diabetes with chronic kidney disease” (Poxel SA, priority 2018, dated 2024)", "assay": "Phase 1 study of pharmacokinetics and safety of imeglimin in subjects with renal impairment compared to normal renal function", "format": "in vivo, human", "conditions": "for AUC: read-out: AUC0-τ", "method": "An open-label, parallel-group, multi-center, multiple oral dose study to investigate the pharmacokinetics of imeglimin in subjects with renal impairment compared to subjects with normal renal function was completed.\nIn this study, a total of 51 subjects received imeglimin at the daily dose of 1000 mg, administered either as 1000 mg QD (once a day) or 500 mg bid (twice a day) during 8 days. […] Twenty-four control subjects with normal renal function were matched to mild and moderate (10 receiving QD and 8 receiving bid regimen) and to severe (6 receiving bid regimen) renal impaired subjects. Measurement of the urine to plasma ratio of creatinine using 24 hours urine sampling was calculated (CLCrea).\nImeglimin was administered in the morning time during 8 consecutive days in the group of subjects receiving 1000 mg once a day and in the morning and evening time during 7 consecutive days followed by a morning administration of 500 mg in the morning time on Day 8 in the group of subjects receiving 500 mg twice a day. Morning administrations on Days 1 and 8 were performed on a fasted state, after a 10 hours overnight fasting and during 4 hours after imeglimin administration.\nInclusion Criteria: For subjects with normal renal functions: CLCrea>80 mL/min based on calculation using 24-hrs sampling on day −2. For subjects with impaired renal function: CLCrea 50 to 80 mL/min for subjects with mild renal impairment, 30 to <50 mL/min for subjects with moderate renal impairment, and <30 mL/min for subjects with severe renal impairment based on calculation using 24-hrs sampling on day −2.\nPharmacokinetic parameters included apparent volume of distribution during the terminal phase following extravascular administration (Vz/F), area under the curve of the plasma concentration as a function of time (AUC0-t), the maximum observed concentration (Cmax), the time to maximum concentration (tmax), the plasma half-life (t1/2), the total body clearance of drug from plasma following extravascular administration (CL/F), and other parameters.\nThe urinary excretion parameters of imeglimin in subjects with differing degrees of renal impairment following QD or bid oral doses of imeglimin on day 8 are summarized in Table 3 and Table 4. Parameters measured include amount of unchanged drug excreted in urine as a function of time (Ae0-t), renal clearance (CLR), and the amount of unchanged drug excreted in urine during one dosing interval (Ae0-τ), and the percentage of administered dose excreted in urine during one dosing interval (fe0-τ).\nFor the evaluation of safety and tolerability of multiple oral doses of 1000 mg imeglimin QD (i.e. a total dose of 8000 mg imeglimin) or 500 mg imeglimin BID (i.e. a total dose of 7500 mg imeglimin), laboratory tests (hematology, clinical chemistry, urinalysis), determination of vital signs, ECG recordings, questioning of AEs and physical examinations were performed. […] The incidence of AEs observed within the course of the study was low. Overall 31 out of 51 subjects reported 54 treatment emergent AEs. Of these, only 15 were judged as likely related to the study drug. The majority (39 AEs) were assessed as unlikely related. Based on these low incidence no clear differences between the dose regimens and between the renal impairment groups can be shown.", "key": {"[1]": {"conditions": "500 mg bid oral, Day 8, CKD Stage 2 (mild renal impairment) (N = 4), geometric mean (CV %)"}, "[2]": {"conditions": "500 mg bid oral, Day 8, CKD Stage 3 (moderate renal impairment) (N = 6), geometric mean (CV %)"}, "[3]": {"conditions": "500 mg bid oral, Day 8, CKD Stage 4 (severe renal impairment) (N = 5), geometric mean (CV %)"}, "[4]": {"conditions": "500 mg bid oral, Day 8, Part 1 CKD Stage 2 (mild renal impairment; N = 4), geometric mean"}, "[5]": {"conditions": "500 mg bid oral, Day 8, Part 1 CKD Stage 3 (moderate renal impairment; N = 6), geometric mean"}, "[6]": {"conditions": "500 mg bid oral, Day 8, Part 1 normal renal function (N = 8), geometric mean"}, "[7]": {"conditions": "500 mg bid oral, Day 8, Part 2 CKD Stage 4 (severe renal impairment; N = 5), geometric mean"}, "[8]": {"conditions": "500 mg bid oral, Day 8, Part 2 normal renal function (N = 6), geometric mean"}, "[9]": {"conditions": "500 mg bid oral, Day 8, normal renal function (N = 6), geometric mean (CV %)"}, "[10]": {"conditions": "500 mg bid oral, Day 8, normal renal function (N = 8), geometric mean (CV %)"}, "[11]": {"conditions": "1000 mg QD or 500 mg bid over 8 days, all groups"}, "[12]": {"conditions": "1000 mg QD oral, Day 8, CKD Stage 3 (moderate renal impairment) (N = 6), geometric mean"}, "[13]": {"conditions": "1000 mg QD oral, Day 8, CKD stage 2 (mild renal impairment; N = 5), geometric mean"}, "[14]": {"conditions": "1000 mg QD oral, Day 8, normal renal function (N = 10), geometric mean"}, "[15]": {"conditions": "human, plasma, po, 500 mg, 500 mg bid oral, Day 8, Part 1 CKD Stage 2 (mild renal impairment; N = 4), geometric mean"}, "[16]": {"conditions": "human, plasma, po, 500 mg, 500 mg bid oral, Day 8, Part 1 CKD Stage 3 (moderate renal impairment; N = 6), geometric mean"}}, "note": "Values joined by “and” are separate entries in the source; they are usually repeats but may differ in a detail not shown here. Equal entries are not always repeated. Where two headings read alike, the source gives them in different places."}
{"smiles": "C[C@H]1N=C(N(C)C)N=C(N)N1", "note": "[imeglimin, (6R)—N^2, N^2,6-trimethyl-3,6-dihydro-1,3,5-triazine-2,4-diamine]", "values": [{"measurement": "Ae0-t", "setting": "[1]", "value": "404 (16.4) mg"}, {"measurement": "Ae0-τ", "setting": "[1]", "value": "215 (11.5) mg"}, {"measurement": "feτ (fraction of dose excreted in urine, 12-hour dosing interval)", "setting": "[1]", "value": "43% and 42.9 (11.5) %"}, {"measurement": "Ae0-t", "setting": "[2]", "value": "328 (22.6) mg"}, {"measurement": "Ae0-τ", "setting": "[2]", "value": "199 (29.1) mg"}, {"measurement": "feτ (fraction of dose excreted in urine, 12-hour dosing interval)", "setting": "[2]", "value": "40% and 39.8 (29.1) %"}, {"measurement": "Ae0-t", "setting": "[3]", "value": "357 (25.5) mg"}, {"measurement": "Ae0-τ", "setting": "[3]", "value": "209 (15.6) mg"}, {"measurement": "feτ (fraction of dose excreted in urine, 12-hour dosing interval)", "setting": "[3]", "value": "42% and 41.8 (15.6) %"}, {"measurement": "CL/F", "setting": "[4]", "value": 754, "unit": "mL/min"}, {"measurement": "Cpre", "setting": "[4]", "value": 572, "unit": "ng/mL"}, {"measurement": "CL/F", "setting": "[5]", "value": 485, "unit": "mL/min"}, {"measurement": "Cmin", "setting": "[5]", "value": 808, "unit": "ng/mL"}, {"measurement": "Cpre", "setting": "[5]", "value": 996, "unit": "ng/mL"}, {"measurement": "CL/F", "setting": "[6]", "value": 1128, "unit": "mL/min"}, {"measurement": "Cpre", "setting": "[6]", "value": 254, "unit": "ng/mL"}, {"measurement": "CL/F", "setting": "[7]", "value": 336, "unit": "mL/min"}, {"measurement": "Cmin", "setting": "[7]", "value": 1211, "unit": "ng/mL"}, {"measurement": "Cpre", "setting": "[7]", "value": 1335, "unit": "ng/mL"}, {"measurement": "CL/F", "setting": "[8]", "value": 1195, "unit": "mL/min"}, {"measurement": "Cmin", "setting": "[8]", "value": 169, "unit": "ng/mL"}, {"measurement": "Cpre", "setting": "[8]", "value": 209, "unit": "ng/mL"}, {"measurement": "Ae0-t", "setting": "[9]", "value": "298 (30.6) mg"}, {"measurement": "Ae0-τ", "setting": "[9]", "value": "229 (25.3) mg"}, {"measurement": "feτ (fraction of dose excreted in urine, 12-hour dosing interval)", "setting": "[9]", "value": "45.9 (25.3) %"}, {"measurement": "Ae0-t", "setting": "[10]", "value": "307 (37.7) mg"}, {"measurement": "Ae0-τ", "setting": "[10]", "value": "222 (22.6) mg"}, {"measurement": "feτ (fraction of dose excreted in urine, 12-hour dosing interval)", "setting": "[10]", "value": "44.4 (22.6) %"}, {"measurement": "number of treatment emergent AEs", "setting": "[11]", "value": 54}, {"measurement": "subjects reporting treatment emergent AEs", "setting": "[11]", "value": "31 out of 51 subjects"}, {"measurement": "Ae0-t (unchanged drug excreted in urine)", "setting": "[12]", "value": 453, "unit": "mg"}, {"measurement": "Ae0-τ", "setting": "[12]", "value": 345, "unit": "mg"}, {"measurement": "CL/F", "setting": "[12]", "value": 573, "unit": "mL/min"}, {"measurement": "Cpre", "setting": "[12]", "value": 382, "unit": "ng/mL"}, {"measurement": "feτ (percentage of dose excreted in urine during one dosing interval)", "setting": "[12]", "value": 34.5, "unit": "%"}, {"measurement": "CL/F", "setting": "[13]", "value": 828, "unit": "mL/min"}, {"measurement": "Cpre", "setting": "[13]", "value": 181, "unit": "ng/mL"}, {"measurement": "Ae0-t (unchanged drug excreted in urine)", "setting": "[14]", "value": 460, "unit": "mg"}, {"measurement": "Ae0-τ", "setting": "[14]", "value": 386, "unit": "mg"}, {"measurement": "CL/F", "setting": "[14]", "value": 1082, "unit": "mL/min"}, {"measurement": "Cav", "setting": "[14]", "value": 642, "unit": "ng/mL"}, {"measurement": "Cpre", "setting": "[14]", "value": 136, "unit": "ng/mL"}, {"measurement": "feτ (percentage of dose excreted in urine during one dosing interval)", "setting": "[14]", "value": 38.6, "unit": "%"}, {"measurement": "QRS-, QT intervals and corrected QTc-intervals (Bazett, Fridericia)", "setting": "ECG recordings", "value": "did not reveal any relevant changes"}, {"measurement": "vital signs", "setting": "following the administration of imeglimin", "value": "did not show any clinically relevant changes"}, {"measurement": "clinical laboratory parameters", "setting": "human, in vivo", "value": "no significant abnormality observed"}, {"measurement": "half-life", "setting": "human, plasma, oral, across groups", "value": "13 to 26", "unit": "h"}, {"measurement": "Tmax", "setting": "human, plasma, oral, post-dose, across renal function groups and time, read-out: Median Tmax", "value": "3.5 to 5", "unit": "h"}, {"measurement": "Cmax", "setting": "[15]", "value": 1320, "unit": "ng/mL"}, {"measurement": "half-life", "setting": "[15]", "value": 26.1, "unit": "h"}, {"measurement": "AUC", "setting": "[15]", "value": 11100, "unit": "ng·h/mL"}, {"measurement": "concentration at 8 day", "setting": "human, plasma, po, 500 mg, 500 mg bid oral, Day 8, Part 1 CKD Stage 2 (mild renal impairment; N = 4), geometric mean, read-out: Cav", "value": 921, "unit": "ng/mL"}, {"measurement": "concentration at 8 day", "setting": "human, plasma, po, 500 mg, 500 mg bid oral, Day 8, Part 1 CKD Stage 2 (mild renal impairment; N = 4), geometric mean, read-out: Cmin", "value": 459, "unit": "ng/mL"}, {"measurement": "Vd/F", "setting": "human, plasma, po, 500 mg, 500 mg bid oral, Day 8, Part 1 CKD Stage 2 (mild renal impairment; N = 4), geometric mean, read-out: Vz/F", "value": 1700, "unit": "L"}, {"measurement": "Tmax", "setting": "human, plasma, po, 500 mg, 500 mg bid oral, Day 8, Part 1 CKD Stage 2 (mild renal impairment; N = 4), median, read-out: tmax", "value": 4, "unit": "h"}, {"measurement": "Cmax", "setting": "[16]", "value": 2000, "unit": "ng/mL"}, {"measurement": "half-life", "setting": "[16]", "value": 21.9, "unit": "h"}, {"measurement": "AUC", "setting": "[16]", "value": 17200, "unit": "ng·h/mL"}]}
